Patent US20080300243A1, “Amide Derivatives as Ion-Channel Ligands and Pharmaceutical Compositions and Methods of Using the Same” (priority 2005, published 2008)

Key:
VR1 [1] = target: T1, VR1 (Homo sapiens, UniProt Q8NER1); assay: Calcium uptake assay, low pH (proton) stimulus; format: cell-based; design: expressed in transfected cells; host or cells: T-REx HEK 293 (Invitrogen), pcDNA5/TO vector; conditions: HEK293; 0.3 μM compound; low pH agonist; HEK 293 cells expressing hVR1; read-out: Low pH % Inhib. @ 0.3 μM
Target sequence in this assay (Q8NER1 whole entry): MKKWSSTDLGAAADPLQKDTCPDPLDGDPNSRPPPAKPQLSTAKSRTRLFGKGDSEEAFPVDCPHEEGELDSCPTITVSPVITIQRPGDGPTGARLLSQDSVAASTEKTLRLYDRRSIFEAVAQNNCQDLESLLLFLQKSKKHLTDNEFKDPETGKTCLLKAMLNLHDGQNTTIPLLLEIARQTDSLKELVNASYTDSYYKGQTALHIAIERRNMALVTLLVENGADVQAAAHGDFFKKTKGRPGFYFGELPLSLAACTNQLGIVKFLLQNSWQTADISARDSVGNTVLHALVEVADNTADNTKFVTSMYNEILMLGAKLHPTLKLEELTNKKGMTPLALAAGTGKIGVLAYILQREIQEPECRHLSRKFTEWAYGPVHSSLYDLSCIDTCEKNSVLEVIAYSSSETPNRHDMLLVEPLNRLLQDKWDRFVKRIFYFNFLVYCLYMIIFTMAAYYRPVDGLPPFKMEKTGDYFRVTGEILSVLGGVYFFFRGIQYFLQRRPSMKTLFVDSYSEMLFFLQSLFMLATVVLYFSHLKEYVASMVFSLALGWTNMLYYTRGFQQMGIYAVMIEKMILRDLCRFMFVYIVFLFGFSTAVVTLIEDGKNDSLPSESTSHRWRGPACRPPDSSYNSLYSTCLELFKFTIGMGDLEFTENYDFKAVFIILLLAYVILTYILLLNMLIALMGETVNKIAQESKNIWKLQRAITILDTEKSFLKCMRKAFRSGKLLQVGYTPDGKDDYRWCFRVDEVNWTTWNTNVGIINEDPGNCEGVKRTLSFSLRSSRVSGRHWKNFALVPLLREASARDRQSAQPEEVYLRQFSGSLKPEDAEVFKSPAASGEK

VR1 [2] = target: T1, VR1; assay: Acid stimulation assay (FDSS 6000); format: cell-based; design: host or cells: unspecified cell suspension; conditions: final assay buffer pH5.8, 15 min pre-incubation
Description: The Acid-induced changes in the intracellular calcium concentration were monitored using FDSS 6000 (Hamamatsu Photonics, Japan), a fluorometric imaging system. The cell suspension in resting buffer (HBSS supplemented with […], pH 7.4) was pre-incubated with varying concentrations of the test compounds or resting buffer (buffer control) for 15 minutes at room temperature under dark conditions. The cells were automatically added the stimulating solution (HBSS supplemented with MES, final assay buffer pH5.8) by the FDSS 6000.
Target sequence in this assay (Q8NER1 whole entry, species assumed): as the sequence (Q8NER1 whole entry) above

VR1 [3] = target: T1, VR1; assay: Calcium uptake assay, capsaicin stimulus; format: cell-based; design: expressed in transfected cells; host or cells: T-REx HEK 293 (Invitrogen), pcDNA5/TO vector; conditions: 3 nM compound
Target sequence in this assay (Q8NER1 whole entry): as above

[4] = Half-life in human liver microsomes (HLM); format: in vitro ADME; conditions: human, human liver microsomes (HLM, HL101), pH 7.4; 1 μM compound, 0.78 mg/mL HLM, 37° C., NADPH
Description: Test compounds (1 μM) were incubated with 3.3 mM MgCl2 and 0.78 mg/mL HLM (HL101) in 100 mM potassium phosphate buffer (pH 7.4) at 37° C. on the 96-deep well plate. The reaction mixture was split into two groups, a non-P450 and a P450 group. NADPH was only added to the reaction mixture of the P450 group. An aliquot of samples of P450 group was collected at 0, 10, 30, and 60 min time point, where 0 min time point indicated the time when NADPH was added into the reaction mixture of P450 group. An aliquot of samples of non-P450 group was collected at −10 and 65 min time point. Collected aliquots were extracted with acetonitrile solution containing an internal standard. The precipitated protein was spun down in centrifuge (2000 rpm, 15 min). The compound concentration in supernatant was measured by LC/MS/MS system.
The half-life value was obtained by plotting the natural logarithm of the peak area ratio of compounds/internal standard versus time. The slope of the line of best fit through the points yields the rate of metabolism (k). This was converted to a half-life value using following equations:
Exemplary compounds of the invention were tested (1 μM), and were incubated with 3.3 mM MgCl2 and 0.78 mg/mL HLM (HL101) in 100 mM potassium phosphate buffer (pH 7.4) at 37° C. on the 96-deep well plate. The reaction mixture was split into two groups, a non-P450 and a P450 group. NADPH was only added to the reaction mixture of the P450 group. An aliquot of samples of the P450 group was collected at 0, 10, 30, and 60 minute time points, where the 0 minute time point indicated the time when NADPH was added into the reaction mixture of the P450 group. An aliquot of samples of the non-P450 group was collected at −10 and 65 minute time points. Collected aliquots were extracted with an acetonitrile solution containing an internal standard. The precipitated protein was spun down in a centrifuge (2000 rpm, 15 rain). The compound concentration in supernatant was measured by LC/MS/MS system. The half-life value (T1/2) was obtained by plotting the natural logarithm of the peak area ratio of compounds/internal standard versus time. The slope of the line of best fit through the points yields the rate of metabolism (k). This was converted to a half-life value using following equations: Half-life=ln 2/k.

| inhibition at 0.3 µM (VR1 [1]) | IC50 (VR1 [2]) | inhibition of the Capsaicin induced intracellular calcium response (FIGS. 2-6) (VR1 [3]) | half-life at 1 μM [4] | SMILES |
| --- | --- | --- | --- | --- |
| 99% | 8 nM |  |  | CC(C)(C)C#Cc1cc(F)c(C(=O)Nc2cccc3cnccc23)c(F)c1 [Compound 166] |
| 107% | 3 nM |  |  | CC(C)(C)C#Cc1ccc(C(=O)Nc2ccc3c(c2)OCC(CO)N3)c(F)c1 (stereo not shown) [Compound 138] |
| 107% | 3 nM |  |  | Cc1cc(C#CC(C)(C)C)ccc1C(=O)Nc1ccc2sc(CO)nc2c1 [Compound 197, N-(2-(hydroxymethyl)benzo[d]thiazol-5-yl)-2-methyl-4-(3,3-dimethylbut-1-ynyl)benzamide] |
| 74% | 3 nM |  |  | Cc1cc(C#CC(C)(C)C)ccc1C(=O)Nc1ccc2[nH]cnc2c1 [Compound 214] |
| 99% | 3 nM | significant inhibition | 0.34 h | C/C(=C\C(F)(F)F)c1ccc(C(=O)Nc2ccc3c(c2)OCCN3)cc1 [Compound 96] |
| 106% | 3 nM |  |  | Cc1cc(/C=C/C(C)(C)C)ccc1C(=O)Nc1cnc2ccccc2c1 [Compound 210] |
| 102% | 3 nM |  |  | Cc1cc(C#CC(C)(C)C)ccc1C(=O)Nc1ccc2c(c1)OC[C@H](CO)N2 [Compound 194] |
| 99% | 1 nM | significant inhibition | 0.02 h | O=C(Nc1cccc2cnccc12)c1ccc(C#CC(F)(F)F)cc1 [Compound 45] |
| 102% |  |  | 0.64 h | Cc1cc(C#CC(C)(C)C)ccc1C(=O)Nc1ccc2c(c1)OC[C@@H](CO)N2 [Compound 184] |
| 116% | 5 nM |  | 0.75 h | O=C(Nc1ccc2c(c1)OCC(CO)N2)c1ccc(/C=C/C(F)(F)F)cc1 (stereo not shown) [Compound 111] |
| 60% | 3 nM |  |  | Cc1cc(/C=C/C(F)(F)F)ccc1C(=O)Nc1ccc2c(c1)OC[C@H](CO)N2 [Compound 195] |
| 107% |  |  | 1.37 h | O=C(Nc1ccc2c(c1)OCC(CO)N2)c1ccc(/C=C/C(F)(F)F)cc1Cl (stereo not shown) [Compound 157] |
| 119% |  |  | 1.22 h | CN1CCCc2ccc(NC(=O)c3ccc(C#CC(C)(C)C)cc3)cc21 [Compound 74] |
| 102% |  |  | 1.02 h | Cc1cc(C#CC(C)(C)C)ccc1C(=O)Nc1cnc2ccccc2c1 [Compound 181] |
| 85% |  |  | 0.48 h | O=C(Nc1ccc2c(c1)OCCN2)c1ccc(C#CC2CC2)c(OCC2CC2)c1 [Compound 94] |
| 108% | 3 nM |  |  | CC(C)(C)C#Cc1ccc(C(=O)Nc2ccc3c(c2)OC[C@@H](CO)N3)c(F)c1 [Compound 170] |
| 98% | 3 nM | significant inhibition | 9.47 h | Cc1cc(/C=C/C(F)(F)F)ccc1C(=O)Nc1cnc2ccccc2c1 [Compound 187] |
| 103% | 5 nM |  | 1.03 h | Cc1cc(/C=C/C(F)(F)F)ccc1C(=O)Nc1ccc2c(c1)OCCN2 [Compound 118] |
| 105% |  |  | 2.03 h | CC(C)(C)C#Cc1ccc(C(=O)Nc2cnc3ccccc3c2)c(Cl)c1 [Compound 164] |
| 83% |  |  | 1.34 h | Cc1nc2cc(NC(=O)c3ccc(/C=C/C(F)(F)F)cc3C)ccc2s1 [Compound 188] |

| inhibition at 0.3 µM (VR1 [1]) | IC50 (VR1 [2]) | inhibition of the Capsaicin induced intracellular calcium response (FIGS. 2-6) (VR1 [3]) | half-life at 1 μM [4] | SMILES |
| --- | --- | --- | --- | --- |
| 105% |  |  | 0.65 h | C/C(=C\c1ccc(C(=O)Nc2ccc3c(c2)OCCN3)cc1)C(F)(F)F [Compound 93] |
| 97% |  |  | 1.15 h | O=C(Nc1ccc2c(c1)OCCO2)c1ccc(/C=C/C(F)(F)F)cc1 [Compound 34] |
| 107% | 7 nM | significant inhibition |  | Cc1cc(C#CC(C)(C)C)ccc1C(=O)Nc1ccc2c(c1)OCC(CO)N2 (stereo not shown) [Compound 167] |
| 89% | 4 nM |  |  | COc1c(C#CC(C)(C)C)ccc(C(=O)Nc2cccc3cnccc23)c1F [Compound 176] |
| 92% |  |  | 0.53 h | C/C(=C\c1ccc(C(=O)Nc2cccc3cnccc23)cc1)C(F)(F)F [Compound 89] |
| 107% |  |  | 1.43 h | CC(C)(C)C#Cc1ccc(C(=O)Nc2ccc3c(c2)OCC(CO)N3)c(Cl)c1 (stereo not shown) [Compound 158] |
| 19% |  |  | 1.88 h | COc1cc(/C=C/C(F)(F)F)ccc1C(=O)Nc1ccc2c(c1)OCCO2 [Compound 123] |
| 116% | 5 nM |  |  | O=C(Nc1ccc2c(c1)OC[C@@H](CO)O2)c1ccc(/C=C/C(F)(F)F)cc1 [Compound 107] |
| 100% | 3 nM | significant inhibition |  | Cc1cc(/C=C/C(F)(F)F)ccc1C(=O)Nc1cnc2c(c1)OCC(CO)N2 (stereo not shown) [Compound 233] |
| 106% | 2.5 nM |  | 0.49 h | O=C(Nc1cccc2cnccc12)c1ccc(/C=C/C(F)(F)F)cc1 [Compound 35] |
| 103% | 3 nM |  |  | O=C(Nc1ccc2c(c1)OC[C@H](CO)N2)c1ccc(/C=C/C(F)(F)F)cc1F [Compound 193] |
| 100% |  |  | 1.27 h | Cc1cc(/C=C/C(F)(F)F)ccc1C(=O)Nc1ccc2cc(CO)cnc2c1 [Compound 228] |
| 101% | 3 nM |  |  | Cc1cc(C#CC(C)(C)C)ccc1C(=O)Nc1ccc2scnc2c1 [Compound 198, N-(benzo[d]thiazol-5-yl)-2-methyl-4-(3,3-dimethylbut-1-ynyl)benzamide] |
| 100% | 5 nM |  | 1.37 h | O=C(Nc1ccc2c(c1)OCC(CO)N2)c1ccc(C#CC2CC2)cc1F (stereo not shown) [Compound 127] |
| 88% |  |  | 0.8 h | O=C(Nc1ccc2c(c1)OCC(CO)O2)c1ccc(C#CC2CCCC2)cc1 (stereo not shown) [Compound 112] |
| 101% |  |  | 0.03 h | Cc1nc2cc(NC(=O)c3ccc(C#CC(F)(F)F)cc3)ccc2s1 [Compound 52] |
| 109% | 3 nM |  | 1.24 h | CC(C)(C)C#Cc1ccc(C(=O)Nc2ccc3c(c2)OC[C@H](CO)N3)c(F)c1 [Compound 172] |
| 104% |  |  | 1.97 h | Cc1cc(/C=C/C(F)(F)F)ccc1C(=O)Nc1ccc2c(c1)OCC(CO)N2 (stereo not shown) [Compound 131] |
| 99% |  |  | 0.33 h | O=C(Nc1cccc2cnccc12)c1ccc(C#CC2CC2)cc1 [Compound 48] |
